Converted amounts (≈) assume the structure as drawn.
Key:
[1] = test system: panel of anaerobic bacteria (Bacteroides fragilis, Clostridium perfringens, Clostridium difficele); assay type: cell-based; settings: single concentration 100 μM
[2] = test system: DHODH (dihydroorotate dehydrogenase); assay: DHODH assay; assay type: biochemical; settings: test concentration not given
[3] = Determination of metabolic stability (liver microsomes); assay type: in vitro ADME, rat; settings: for Metabolic turn-over (rat) in vitro: 20 μM, 15 min, 37° C.
Protocol: Samples were incubated for 15 min at 37° C. and the reactions were terminated by addition of equal volumes of acetonitrile. Blank incubations were performed at the same concentration but without addition of microsomes. Both blank and microsome-containing samples were made in […] of three. […] The fraction of compound metabolised during the 15 min of incubation was determined by comparison of blank and microsome-containing samples using a Waters Alliance 2690 separation module and Waters 996 PDA-detector (Waters. […] This was followed by a 5 minutes linear gradient to initial conditions, which were maintained for 5 min. The flow rate was 0.20 ml/min and injection volume 10 μl.

[4] = test system: Staphylococcus intermedius #2357 (clinical isolate); assay: MIC determination in broth microdilution assay
Eschericia coli ESS = assay: MIC determination in broth microdilution assay
[5] = test system: Staphylococcus aureus ATCC33591 (resistant to methicillin); assay: MIC determination in broth microdilution assay
[6] = test system: Enterococcus faecalis ATCC29212; assay: MIC determination in broth microdilution assay
[7] = test system: panel of non-fastidious bacteria (Gram-positive pathogens and Eschericia coli); assay: Activity against non-fastidious bacteria (panel, results in words); settings: Gram-positive pathogens
[8] = test system: Staphylococcus aureus ATCC29213; assay: MIC determination in broth microdilution assay
[9] = test system: Enterococcus faecium #17501 (vancomycin-resistant clinical isolate); assay: MIC determination in broth microdilution assay
[10] = test system: Streptococcus pneumoniae #998 (clinical isolate); assay: MIC determination in broth microdilution assay
[11] = Determination of solubility; assay type: physicochemical; settings: 0.3 M phosphate buffer, 24 hours
Protocol: Solubility of the compounds was determined by preparing a saturated solution of compound in 0.3 M phosphate buffer (pH 7.4±0.3) in a brown glass tube. The suspensions were rotated slowly for 24 hours. Aliquots were centrifuged for 10 minutes at 14.000 rpm and supernatants were diluted in 40% (v/v) acetonitrile in water prior to HPLC analysis. Concentrations of analytes were quantified against a standard curve and used as term of solubility.
The HPLC-UV method used for the assessment of solubility is the same as used in the in vitro metabolism assay.

CN(C)Cc1ccc(C(=O)/C=C/c2ccc(Cl)cc2Cl)cc1 [A011, (E)-3-(2,4-Dichloro-phenyl)-1-(4-dimethylaminomethyl-phenyl)-propenone]
activity against anaerobic bacteria [1]: activity against all microorganisms within the test panel

CN(C)Cc1ccccc1C(=O)/C=C/c1cccc(Nc2cccnc2)c1 [A090, (E)-1-(2-Dimethylaminomethyl-phenyl)-3-[3-(pyridin-3-ylamino)-phenyl]-propenone]
activity against anaerobic bacteria [1]: activity against all microorganisms within the test panel

O=C(/C=C/c1ccc(Cl)cc1Cl)c1ccccc1CN1CCOCC1 [A037, (E)-3-(2,4-Dichloro-phenyl)-1-(2-morpholin-4-ylmethyl-phenyl)-propenone]
activity against anaerobic bacteria [1]: activity against all microorganisms within the test panel

CCN(CC)Cc1ccccc1C(=O)/C=C/c1ccc(Cl)cc1Cl [A045, (E)-3-(2,4-Dichloro-phenyl)-1-(2-diethylaminomethyl-phenyl)-propenone]
Inhibition of DHODH [2]: 20%

CNCc1cccc(/C=C/C(=O)c2ccc(OC)cc2)c1 [A099, (E)-1-(4-Methoxy-phenyl)-3-(3-methylaminomethyl-phenyl)-propenone]
Metabolic turn-over (rat) in vitro [3]: 7%

CCCCN(CCCC)c1ccc(/C=C/C(=O)c2ccccc2CN(C)C)cc1 [A030, (E)-3-(4-Dibutylamino-phenyl)-1-(2-dimethylaminomethyl-phenyl)-propenone]
MIC, C: Staphylococcus intermedius #2357 [4]: 9.4 µM (≈ 3.69 µg/mL)
MIC, H: Eschericia coli ESS (Eschericia coli ESS): 18.8 µM (≈ 7.38 µg/mL)
activity against the ESS strain of E. coli (Eschericia coli ESS): considerable activity
MIC, B: Staphylococcus aureus ATCC33591 [5]: 9.4 µM (≈ 3.69 µg/mL)
MIC, D: Enterococcus faecalis ATCC29212 [6]: 18.8 µM (≈ 7.38 µg/mL)
potency against Gram-positive pathogens in comparison with Licochalcone A [7]: increased potency
MIC, A: Staphylococcus aureus ATCC29213 [8]: 9.4 µM (≈ 3.69 µg/mL)
MIC, E: Enterococcus faecium #17501 [9]: 18.8 µM (≈ 7.38 µg/mL)
MIC, F: Streptococcus pneumoniae #998 [10]: 18.8 µM (≈ 7.38 µg/mL)

C=CC(C)(C)c1cc(/C=C/C(=O)c2ccccc2CN2CCN(C)CC2)c(OC)cc1Cl [A083, (E)-3-[4-Chloro-5-(1,1-dimethyl-allyl)-2-methoxy-phenyl]-1-[2-(4-methyl-piperazin-1-ylmethyl)-phenyl]-propenone]
MIC, C: Staphylococcus intermedius #2357 [4]: 18.8 µM (≈ 8.52 µg/mL)
MIC, H: Eschericia coli ESS (Eschericia coli ESS): 9.4 µM (≈ 4.26 µg/mL)
activity against the ESS strain of E. coli (Eschericia coli ESS): considerable activity
MIC, B: Staphylococcus aureus ATCC33591 [5]: 9.4 µM (≈ 4.26 µg/mL)
MIC, D: Enterococcus faecalis ATCC29212 [6]: 18.8 µM (≈ 8.52 µg/mL)
potency against Gram-positive pathogens in comparison with Licochalcone A [7]: increased potency
MIC, A: Staphylococcus aureus ATCC29213 [8]: 9.4 µM (≈ 4.26 µg/mL)
MIC, E: Enterococcus faecium #17501 [9]: 9.4 µM (≈ 4.26 µg/mL)
MIC, F: Streptococcus pneumoniae #998 [10]: 18.8 µM (≈ 8.52 µg/mL)

COc1ccc(C(=O)/C=C/c2cccc(CNCCN(C)C)c2)cc1 [A010, (E)-3-{3-[(2-Dimethylamino-ethylamino)-methyl]-phenyl}-1-(4-methoxy-phenyl)-propenone]
Metabolic turn-over (rat) in vitro [3]: 1%
Solubility in aqueous buffer at pH 7.4 [11]: 33.4 mg/ml

COc1ccc(OC)c(/C=C/C(=O)c2ccccc2CN(C)C)c1 [A029, (E)-3-(2,5-Dimethoxy-phenyl)-1-(2-dimethylaminomethyl-phenyl)-propenone]
Metabolic turn-over (rat) in vitro [3]: 3%

COc1ccc(C(=O)/C=C/c2cccc(CN3CCN(C)CC3)c2)cc1 [A013, (E)-1-(4-Methoxy-phenyl)-3-[3-(4-methyl-piperazin-1-ylmethyl)-phenyl]-propenone]
Solubility in aqueous buffer at pH 7.4 [11]: 31.2 mg/ml

CCCCN(CCCC)c1ccc(/C=C/C(=O)c2ccc(OC)c(CN(C)C)c2)cc1 [A110, (E)-3-(4-Dibutylamino-phenyl)-1-(3-dimethylaminomethyl-4-methoxy-phenyl)-propenone]
Metabolic turn-over (rat) in vitro [3]: 6%

COc1ccc(C(=O)/C=C/c2ccc(OC)c(CN(C)C)c2)cc1 [A086, (E)-3-(3-Dimethylaminomethyl-4-methoxy-phenyl)-1-(4-methoxy-phenyl)-propenone]
Solubility in aqueous buffer at pH 7.4 [11]: 8.9 mg/ml

CCCN(CCC)c1ccc(/C=C/C(=O)c2ccccc2CN(C)C)c(OCC)c1 [A084, (E)-1-(2-Dimethylaminomethyl-phenyl)-3-(4-dipropylamino-2-ethoxy-phenyl)-propenone]
activity against the ESS strain of E. coli (Eschericia coli ESS): considerable activity

COc1ccc(C(=O)/C=C/c2ccc(CNCCN(C)C)cc2)cc1 [A005, (E)-3-{4-[(2-Dimethylamino-ethylamino)-methyl]-phenyl}-1-(4-methoxy-phenyl)-propenone]
Solubility in aqueous buffer at pH 7.4 [11]: >6 mg/ml

CCCCN(CCCC)c1ccc(/C=C/C(=O)c2ccc(CN3CCN(C)CC3)cc2)cc1 [A025, (E)-3-(4Dibutylamino-phenyl)-1-[4-(4-methyl-piperazin-1-ylmethyl)-phenyl]-propenone]
MIC, C: Staphylococcus intermedius #2357 [4]: 9.4 µM (≈ 4.21 µg/mL)
MIC, H: Eschericia coli ESS (Eschericia coli ESS): 75.0 µM (≈ 33.6 µg/mL)
MIC, B: Staphylococcus aureus ATCC33591 [5]: 9.4 µM (≈ 4.21 µg/mL)
MIC, D: Enterococcus faecalis ATCC29212 [6]: 9.4 µM (≈ 4.21 µg/mL)
potency against Gram-positive pathogens in comparison with Licochalcone A [7]: increased potency
MIC, A: Staphylococcus aureus ATCC29213 [8]: 9.4 µM (≈ 4.21 µg/mL)
MIC, E: Enterococcus faecium #17501 [9]: 9.4 µM (≈ 4.21 µg/mL)
MIC, F: Streptococcus pneumoniae #998 [10]: 37.5 µM (≈ 16.8 µg/mL)
Inhibition of DHODH [2]: 26%

C=CC(C)(C)c1cc(/C=C/C(=O)c2cccc(CN(C)C)c2)c(OC)cc1O [A137, (E)-3-[5-(1,1-Dimethyl-allyl)-4-hydroxy-2-methoxy-phenyl]-1-(3-dimethylaminomethyl-phenyl)-propenone]
MIC, C: Staphylococcus intermedius #2357 [4]: 9.4 µM (≈ 3.57 µg/mL)
MIC, B: Staphylococcus aureus ATCC33591 [5]: 9.4 µM (≈ 3.57 µg/mL)
MIC, D: Enterococcus faecalis ATCC29212 [6]: 9.4 µM (≈ 3.57 µg/mL)
MIC, A: Staphylococcus aureus ATCC29213 [8]: 4.7 µM (≈ 1.78 µg/mL)
MIC, E: Enterococcus faecium #17501 [9]: 9.4 µM (≈ 3.57 µg/mL)
MIC, F: Streptococcus pneumoniae #998 [10]: 37.5 µM (≈ 14.2 µg/mL)

CCCCN(CCCC)c1cccc(/C=C/C(=O)c2ccc(OC)c(CN(C)C)c2)c1 [A129, (E)-3-(3-Dibutylamino-phenyl)-1-(3-dimethylaminomethyl-4-methoxy-phenyl)-propenone]
MIC, C: Staphylococcus intermedius #2357 [4]: 9.4 µM (≈ 3.97 µg/mL)
MIC, H: Eschericia coli ESS (Eschericia coli ESS): 9.4 µM (≈ 3.97 µg/mL)
MIC, B: Staphylococcus aureus ATCC33591 [5]: 9.4 µM (≈ 3.97 µg/mL)
MIC, D: Enterococcus faecalis ATCC29212 [6]: 9.4 µM (≈ 3.97 µg/mL)
MIC, A: Staphylococcus aureus ATCC29213 [8]: 4.7 µM (≈ 1.99 µg/mL)
MIC, E: Enterococcus faecium #17501 [9]: 9.4 µM (≈ 3.97 µg/mL)
MIC, F: Streptococcus pneumoniae #998 [10]: 37.5 µM (≈ 15.8 µg/mL)

COc1ccc(Nc2cccnc2)cc1/C=C/C(=O)c1ccccc1CN(C)C [A102, (E)-1-(2-Dimethylaminomethyl-phenyl)-3-[2-methoxy-5-(pyridin-3-ylamino)-phenyl]-propenone]
Metabolic turn-over (rat) in vitro [3]: 2%
metabolism (turn-over), rat ([3]; rat): 2%

CN(C)Cc1cccc(C(=O)/C=C/c2ccc(Cl)cc2Cl)c1 [A020, (E)-3-(2,4-Dichloro-phenyl)-1-(3-dimethylaminomethyl-phenyl)-propenone]
Inhibition of DHODH [2]: 23%

CN1CCN(Cc2ccccc2C(=O)/C=C/c2ccc(Cl)cc2Cl)CC1 [A026, (E)-3-(2,4-Dichloro-phenyl)-1-[2-(4-methyl-piperazin-1-ylmethyl)-phenyl]-propenone]
activity against anaerobic bacteria [1]: activity against all microorganisms within the test panel

COc1ccc(OC)c(/C=C/C(=O)c2ccccc2CN2CCNCC2)c1 [A049, (E)-3-(2,5-Dimethoxy-phenyl)-1-(2-piperazin-1-ylmethyl-phenyl)-propenone]
Metabolic turn-over (rat) in vitro [3]: 0%
Solubility in aqueous buffer at pH 7.4 [11]: 6.3 mg/ml

CN1CCN(Cc2cccc(C(=O)/C=C/c3ccc(Cl)cc3Cl)c2)CC1 [A021, (E)-3-(2,4-Dichloro-phenyl)-1-[3-(4-methyl-piperazin-1-ylmethyl)-phenyl]-propenone]
Inhibition of DHODH [2]: 27%

COc1ccc(C(=O)/C=C/c2cccc(CN(C)CCN(C)C)c2)cc1 [A069, (E)-3-(3-{[(2-Dimethylamino-ethyl)-methyl-amino]-methyl}-phenyl)-1-(4-methoxy-phenyl)-propenone]
Solubility in aqueous buffer at pH 7.4 [11]: >10 mg/ml

CCCCN(CCCC)c1ccc(/C=C/C(=O)c2ccc(CN(C)C)cc2)cc1 [A033, (E)-3-(4-Dibutylamino-phenyl)-1-(4-dimethylaminomethyl-phenyl)-propenone]
MIC, C: Staphylococcus intermedius #2357 [4]: 4.7 µM (≈ 1.85 µg/mL)
MIC, H: Eschericia coli ESS (Eschericia coli ESS): 150.0 µM (≈ 58.9 µg/mL)
MIC, B: Staphylococcus aureus ATCC33591 [5]: 9.4 µM (≈ 3.69 µg/mL)
MIC, D: Enterococcus faecalis ATCC29212 [6]: 9.4 µM (≈ 3.69 µg/mL)
potency against Gram-positive pathogens in comparison with Licochalcone A [7]: increased potency
MIC, A: Staphylococcus aureus ATCC29213 [8]: 4.7 µM (≈ 1.85 µg/mL)
MIC, E: Enterococcus faecium #17501 [9]: 9.4 µM (≈ 3.69 µg/mL)
MIC, F: Streptococcus pneumoniae #998 [10]: 75.0 µM (≈ 29.4 µg/mL)

— patent publication US20060052600A1, “Amino-functional chalcones” (priority 2002, published 2006)
